Measured values as given in patent US4520031A, “Method for reducing toxic effects of methyl-glyoxal bis-guanylhydrazone” (priority 1982, dated 1985).
Entries after “also recorded” stand apart in the source; their conditions may differ. Read-outs that look alike come from different tables or passages of the source.

Assays:
[1] = design: muscle pain and weakness in patient with acute leukemia: dose or concentration left out as unconfirmed
Method: During the course of the clinical experiments, MGBG was administered to patients in approximately weekly doses ranging from 250 to 1000 mg per square meter.
Pre-treatment minimum evaluation included chest roentgenogram, liver and renal function tests, complete blood count with differential and platelet count and serum glucose. Pre-treatment performance status was recorded for each patient in accordance with SWOG criteria.
This intravenous infusion is administered to the patient over a period of time not less than 30 minutes. Accordingly, an approximation of the patient's surface area in square meters is calculated using a height and weight to surface area nomogram (listed in Documenta Geigy, Scientific Tables (1970) p. 537) and this factor is applied in determining the appropriate amount of MGBG salt to be added to the infusion solution. […] In the absence of toxicity, subsequent doses of MGBG are increased by 100 mg/m^2 over the previous week's dose. If patients experience moderate or severe reversible toxicity, the dose is reduced by 100 mg/m^2 relative to the previous week's dose. No change in dosage strength is made for mild toxicity.

Lung (non-small cell) = assay: Response to weekly MGBG, lung; assay type: in vivo, human; conditions: 6 evaluable patients
Esophagus = assay: Response to weekly MGBG, esophagus; assay type: in vivo, human
[2] = system: Bladder (transitional cell); assay: Response to weekly MGBG, bladder; assay type: in vivo, human
[3] = system: acute myelocytic leukemia; conditions: cited from earlier work
[4] = over three weeks, 30240 min; cited from earlier work
adenocarcinoma-755 = conditions: Freelander and French; cited from earlier work
[5] = human subjects undergoing MGBG treatment; cited from earlier work
[6] = cited from earlier work

CC(C=NNC(=N)N)=NNC(=N)N [MGBG, 1,1'-[(methylethanediylidene)dinitrilo] diguanidine]
Number with Toxicity ([1]; 1 course MGBG, 13 patients): 1 patients | Number with Toxicity (Approx %) ([1]; 1 course MGBG, 13 patients): 8% | Number with Toxicity ([1]; 2 courses MGBG, 25 patients): 7 patients | Number with Toxicity (Approx %) ([1]; 2 courses MGBG, 25 patients): 28% | Number with Toxicity ([1]; 3 courses MGBG, 15 patients): 6 patients | Number with Toxicity (Approx %) ([1]; 3 courses MGBG, 15 patients): 40% | Anemia, Hemoglobin 5.0-6.9 g/100 ml ([1]; 90 patients): 2 patients | Anemia, Hemoglobin 7.0-8.9 g/100 ml ([1]; 90 patients): 1 patients | Diarrhea: 3-4 stools/day, no dehydration ([1]; 90 patients): 1 patients | Diarrhea: 4 liquid stools/day, IV hydration required ([1]; 90 patients): 1 patients | Granulocytes: <1000/mm^3 ([1]; 90 patients): 3 patients | vomiting ≤6 times/day ([1]; 90 patients): 5 patients | vomiting ≥7 times/day ([1]; 90 patients): 3 patients | patients with no toxicity (number) ([1]; 90 patients, 500 mg/m^2 or more each week): 67 patients | Mucositis: drug-related death ([1]; 90 patients, patient with hepatoma, one dose at 600 mg/m^2): 1 patients | muscle pain and weakness in patient with acute leukemia ([1]; acute leukemia, three weekly doses): One | toxicity at 250 mg/m^2 weekly ([1]; first twelve patients, 250 mg/m^2 weekly): no toxicity | Anorexia (Approx. %) ([1]; human, in vivo): 8% | Anorexia (No. of Patients) ([1]; human, in vivo): 7 patients | Balanitis (Approx. %) ([1]; human, in vivo): 4% | Balanitis (No. of Patients) ([1]; human, in vivo): 4 patients | Diarrhea (Approx. %) ([1]; human, in vivo): 3% | Diarrhea (No. of Patients) ([1]; human, in vivo): 3 patients | Granulocytes: <1500 mm^3 ([1]; human, in vivo): 2 patients | Hematologic (Approx. %) ([1]; human, in vivo): 11% | Hematologic (No. of Patients) ([1]; human, in vivo): 10 patients | Mucositis: erythema ([1]; human, in vivo): 3 patients | Mucositis: ulcers, able to eat ([1]; human, in vivo): 7 patients | Mucositis: ulcers, unable to eat ([1]; human, in vivo): 6 patients | Myelosuppression (number) ([1]; human, in vivo): 7 patients | Myelosuppression (percent) ([1]; human, in vivo): 8% | Myopathy (Approx. %) ([1]; human, in vivo): 3% | Myopathy (No. of Patients) ([1]; human, in vivo): 3 patients | Nausea and vomiting (Approx. %) ([1]; human, in vivo): 16% | Nausea and vomiting (No. of Patients) ([1]; human, in vivo): 14 patients | Platelets: 25 × 10^3 -50 × 10^3 /mm^3 ([1]; human, in vivo): 2 patients | Skin rash (Approx. %) ([1]; human, in vivo): 2% | Skin rash (No. of Patients) ([1]; human, in vivo): 2 patients | Urethritis (Approx. %) ([1]; human, in vivo): 3% | Urethritis (No. of Patients) ([1]; human, in vivo): 3 patients | Vasculitis (Approx. %) ([1]; human, in vivo): 2% | Vasculitis (No. of Patients) ([1]; human, in vivo): 2 patients | anemia (number) ([1]; human, in vivo): 3 patients | anemia (percent) ([1]; human, in vivo): 3% | bloody diarrhea ([1]; human, in vivo): 1 patients | hospitalization secondary to vomiting ([1]; human, in vivo): 1 patients | nausea, no vomiting ([1]; human, in vivo): 5 patients | severe muscle pain and weakness of the lower extremities ([1]; human, in vivo): three | cumulative toxicity ([1]; increasing numbers of courses): toxicity appeared to be cumulative | reversibility of muscle pain and weakness ([1]; three patients): reversible with drug withdrawal | creatinine phosphokinase and aldolase ([1]; three patients with muscle pain and weakness): normal | Number with Toxicity ([1]; ≥4 courses MGBG, 56 patients): 28 patients | Number with Toxicity (Approx %) ([1]; ≥4 courses MGBG, 56 patients): 50% | CR + PR (Lung (non-small cell)): 2 | No Response (Lung (non-small cell)): 4 | PR (Partial response) (Lung (non-small cell)): 2 | CR + PR (Esophagus; 2 evaluable patients): 1 | No Response (Esophagus; 2 evaluable patients): 1 | PR (Partial response) (Esophagus; 2 evaluable patients): 1 | Duration Months (Esophagus; duration of CR + PR): 3 Months | CR (Complete response) ([2]; 3 evaluable patients): 1 | CR + PR ([2]; 3 evaluable patients): 1 | No Response ([2]; 3 evaluable patients): 2 | Duration Months ([2]; duration of CR + PR): 1 Months | remission rate (complete remissions) ([3]; average daily parenteral dose of 126 to 160 mg/m^2, Levin et al.): 45% | activity in acute myelocytic leukemia ([3]; daily dosing schedule): major activity | median increase in survival ([3]; from 2.5 months, compared to patients with myeloblastic leukemia treated with 6-mercaptopurine): 6.5 months | administered intravenous dose excreted in the feces [4]: less than 20% | administered intravenous dose excreted in the urine [4]: 50% | antitumor activity (adenocarcinoma-755): antitumor activity | toxic effects unique to man [5]: esophagitis, ulcerative pharyngitis, laryngitis, stomatitis, genital mucosa swelling, conjunctivitis, mucositis, erythema, edema, desquamating dermatitis, and profound anorexia with associated weight loss; also recorded: mucositis, vasculitis, and profound anorexia with associated weight loss | Days to first Toxicity ([6]; patient 1, 230 mg/m^2/day): 16 days | Response ([6]; patient 1, 230 mg/m^2/day): None | Days to first Toxicity ([6]; patient 2, 340 mg/m^2/day): 7 days | Response ([6]; patient 2, 340 mg/m^2/day): None | Days to first Toxicity ([6]; patient 3, 256 mg/m^2/day): 9 days | Response ([6]; patient 3, 256 mg/m^2/day): Partial | Days to first Toxicity ([6]; patient 4, 264 mg/m^2/day): 7 days | Response ([6]; patient 4, 264 mg/m^2/day): Complete | Days to first Toxicity ([6]; patient 5, 252 mg/m^2/day): 10 days | Response ([6]; patient 5, 252 mg/m^2/day): Complete | Days to first Toxicity ([6]; patient 6, 156 mg/m^2/day): 10 days | Response ([6]; patient 6, 156 mg/m^2/day): Complete | Days to first Toxicity ([6]; patient 7, 194 mg/m^2/day): 6 days | Response ([6]; patient 7, 194 mg/m^2/day): Complete | Days to first Toxicity ([6]; patient 8, 194 mg/m^2/day): 7 days | Response ([6]; patient 8, 194 mg/m^2/day): Complete | Days to first Toxicity ([6]; patient 9, 150 mg/m^2/day): 23 days | Response ([6]; patient 9, 150 mg/m^2/day): Partial | Toxic Manifestation ([6]; patient 9, 150 mg/m^2/day): None | Days to first Toxicity ([6]; patient 10, 150 mg/m^2/day): 24 days | Response ([6]; patient 10, 150 mg/m^2/day): Complete | Toxic Manifestation ([6]; patient 10, 150 mg/m^2/day): None | Days to first Toxicity ([6]; patient 11, 150 mg/m^2/day): 15 days | Response ([6]; patient 11, 150 mg/m^2/day): Complete | Toxic Manifestation ([6]; patient 11, 150 mg/m^2/day): None | Days to first Toxicity ([6]; patient 12, 150 mg/m^2/day): 13 days | Response ([6]; patient 12, 150 mg/m^2/day): Complete | Days to first Toxicity ([6]; patient 13, 150 mg/m^2/day): 13 days | Response ([6]; patient 13, 150 mg/m^2/day): Complete | Toxic Manifestation ([6]; patient 13, 150 mg/m^2/day): None
